Reference: ChEMBL document CHEMBL1201862, “PubChem BioAssay data set” (2004)
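Values below derive from 48-hour exposures of cells grown in 96-well plates, with endpoints linearly interpolated between the two concentrations bracketing the appropriate inhibition level. GI50 = concentration required for 50% inhibition of growth.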 Calls of active or inactive are those of the source. No stated cut-off is given here; in the data, active = GI50 up to about 1.1 µM and inactive = higher.

Experiments:
Assay in all cases: inhibition of tumour cell growth, NCI panel, 48 h
HT-29 = system: HT-29
NCI-H460 = system: NCI-H460
OVCAR-4 = system: OVCAR-4
ACHN = system: ACHN
A549 = system: A549
SF-268 = system: SF-268
T47D = system: T47D
MDA-MB-435 = system: MDA-MB-435
MCF7 = system: MCF7
NCI-H522 = system: NCI-H522
SW-620 = system: SW-620
NCI/ADR-RES = system: NCI/ADR-RES
CAKI-1 = system: CAKI-1
SK-MEL-28 = system: SK-MEL-28
LOX IMVI = system: LOX IMVI
SF-539 = system: SF-539
U-251 = system: U-251
MDA-MB-231 = system: MDA-MB-231
HL-60 = system: HL-60
EKVX = system: EKVX
OVCAR-5 = system: OVCAR-5
SK-OV-3 = system: SK-OV-3
K562 = system: K562
UACC-62 = system: UACC-62
SK-MEL-5 = system: SK-MEL-5
SN12C = system: SN12C
PC-3 = system: PC-3
Malme-3M = system: Malme-3M
IGROV-1 = system: IGROV-1
RPMI-8226 = system: RPMI-8226
DU-145 = system: DU-145
MOLT-4 = system: MOLT-4
SF-295 = system: SF-295
NCI-H23 = system: NCI-H23
SNB-19 = system: SNB-19
786-0 = system: 786-0
SK-MEL-2 = system: SK-MEL-2
MDA-N = system: MDA-N
KM12 = system: KM12
COLO 205 = system: COLO 205
HOP-92 = system: HOP-92
NCI-H226 = system: NCI-H226
M14 = system: M14
HCT-116 = system: HCT-116
TK-10 = system: TK-10
Hs-578T = system: Hs-578T
SNB-75 = system: SNB-75
OVCAR-3 = system: OVCAR-3
CCRF-CEM = system: CCRF-CEM
HCT-15 = system: HCT-15
HCC 2998 = system: HCC 2998
OVCAR-8 = system: OVCAR-8
UACC-257 = system: UACC-257
SR = system: SR
HOP-62 = system: HOP-62
UO-31 = system: UO-31

For CCC1(O)CC(OC2CC(N(C)C)C(OC3CC(O)C(OC4CCC(=O)C(C)O4)C(C)O3)C(C)O2)c2c(O)c3c(c(O)c2C1C(=O)OC)C(=O)c1cccc(O)c1C3=O (stereo unspecified), the GI50 (HT-29) was 4.45 nM (active), the GI50 (NCI-H460) was 0.434 nM (active) and the GI50 (OVCAR-4) was 10 nM (active). For the same molecule, the GI50 (ACHN) was 1.34 nM (active), the GI50 (A549) was 3.39 nM (active) and the GI50 (SF-268) was 31.6 nM (active). For the same molecule, the GI50 (T47D) was 15.4 nM (active), the GI50 (MDA-MB-435) was 6.7 nM (active) and the GI50 (MCF7) was 10 nM (active). The GI50 (NCI-H522) was 3.85 nM (active), the GI50 (SW-620) was 1.71 nM (active) and the GI50 (NCI/ADR-RES) was 10.9 nM (active). The GI50 (CAKI-1) was 0.267 nM (active), the GI50 (SK-MEL-28) was 9.95 nM (active) and the GI50 (LOX IMVI) was 1.84 nM (active). The GI50 (SF-539) was 10.1 nM (active), the GI50 (U-251) was 2.8 nM (active) and the GI50 (MDA-MB-231) was 18.1 nM (active). For the same molecule, the GI50 (HL-60) was 5.86 nM (active), the GI50 (EKVX) was 12 nM (active) and the GI50 (OVCAR-5) was 5.75 nM (active). For the same molecule, the GI50 (SK-OV-3) was 5.65 nM (active), the GI50 (K562) was 0.274 nM (active) and the GI50 (UACC-62) was 10.1 nM (active). The GI50 (SK-MEL-5) was 4.05 nM (active), the GI50 (SN12C) was 9.66 nM (active) and the GI50 (PC-3) was 5.02 nM (active). For the same molecule, the GI50 (Malme-3M) was 12.5 nM (active), the GI50 (IGROV-1) was 1.78 nM (active) and the GI50 (RPMI-8226) was 1.81 nM (active). For the same molecule, the GI50 (DU-145) was 6.89 nM (active), the GI50 (MOLT-4) was 1.54 nM (active) and the GI50 (SF-295) was 2.19 nM (active). The GI50 (NCI-H23) was 5.89 nM (active), the GI50 (SNB-19) was 4.57 nM (active) and the GI50 (786-0) was 1.6 nM (active). For the same molecule, the GI50 (SK-MEL-2) was 10.3 nM (active), the GI50 (MDA-N) was 4.82 nM (active) and the GI50 (KM12) was 3.44 nM (active). For the same molecule, the GI50 (COLO 205) was 3.27 nM (active), the GI50 (HOP-92) was 34.4 nM (active) and the GI50 (NCI-H226) was 12.6 nM (active). The GI50 (M14) was 10 nM (active), the GI50 (HCT-116) was 0.396 nM (active) and the GI50 (TK-10) was 15 nM (active). The GI50 (Hs-578T) was 2.21 nM (active), the GI50 (SNB-75) was 8.81 nM (active) and the GI50 (OVCAR-3) was 15.5 nM (active). The GI50 (CCRF-CEM) was 1.76 nM (active), the GI50 (HCT-15) was 7.19 nM and the GI50 (HCC 2998) was 17.2 nM (active). The GI50 (OVCAR-8) was 1.74 nM (active), the GI50 (UACC-257) was 5.9 nM (active) and the GI50 (SR) was 8.97 nM (active). The GI50 (HOP-62) was 10.6 nM (active) and the GI50 (UO-31) was 5.08 nM (active).
